Reference: PubChem BioAssay AID1963425 (Molecular Pharmacology Branch, DTP, NCI, 2024)
Several values for one entry are separate records, joined by “and”; a condition that tells them apart may be missing. Equal values may be shown once.

Tested on: 323965-272-R-J2-PDC complex spheroid growth, % test/control
Experiment: Anticancer human tumor 323965-272-R-J2-PDC patient-derived pancreatic carcinoma cell line growth inhibition [Asc]
Details: for viability, T/C: stronger effect = lower value
Summary of the method: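 Concentration series start at each agent's clinical Cmax, or at 10 microM when none is established, and drop in half-log steps; agents are applied alone or together to complex spheroids built with HUVEC and hMSC.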

[1] = curve of first compound, second compound 0.0316 µM
[2] = curve of first compound, second compound 0.1 µM
[3] = curve of first compound, second compound 0.316 µM
[4] = curve of first compound, second compound 1 µM
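Also: compound exposure lasted 7 days starting three days after spheroid seeding.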
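For viability, T/C in this document: 100% = DMSO vehicle control wells with viability set relative to vehicle.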

Compound: NC(=O)C(=Cn1cnc(-c2cc(C(F)(F)F)cc(C(F)(F)F)c2)n1)c1cncnc1 + CNC(C)C(=O)NC1CN(S(=O)(=O)c2cccc(S(=O)(=O)N3CCC4CCC(C(=O)NC(c5ccccc5)c5ccccc5)N4C(=O)C(NC(=O)C(C)NC)C3)c2)CCC2CCC(C(=O)NC(c3ccccc3)c3ccccc3)N2C1=O
- IC50 (curve of first compound, second compound 0.00316 µM): > 300 nM
- IC50 (curve of first compound, second compound 0.01 µM): > 300 nM
- IC50 [1]: > 300 nM
- IC50 [2]: > 300 nM
- IC50 [3]: > 300 nM
- IC50 [4]: > 300 nM
- viability, T/C (second compound 0.00316 µM, first compound 0.000949 µM): 121%
- viability, T/C (second compound 0.00316 µM, first compound 0.003 µM): 120%
- viability, T/C (second compound 0.00316 µM, first compound 0.00949 µM): 97.1%
- viability, T/C (second compound 0.00316 µM, first compound 0.03 µM): 99.6%
- viability, T/C (second compound 0.00316 µM, first compound 0.0949 µM): 70.7%
- viability, T/C (second compound 0.00316 µM, first compound 0.3 µM): 76.2%
- viability, T/C (second compound 0.01 µM, first compound 0.000949 µM): 103%
- viability, T/C (second compound 0.01 µM, first compound 0.003 µM): 108%
- viability, T/C (second compound 0.01 µM, first compound 0.00949 µM): 109%
- viability, T/C (second compound 0.01 µM, first compound 0.03 µM): 91.1%
- viability, T/C (second compound 0.01 µM, first compound 0.0949 µM): 78.8%
- viability, T/C (second compound 0.01 µM, first compound 0.3 µM): 62.5%
- viability, T/C (second compound 0.0316 µM, first compound 0.000949 µM): 103%
- viability, T/C (second compound 0.0316 µM, first compound 0.003 µM): 109%
- viability, T/C (second compound 0.0316 µM, first compound 0.00949 µM): 108%
- viability, T/C (second compound 0.0316 µM, first compound 0.03 µM): 86.7%
- viability, T/C (second compound 0.0316 µM, first compound 0.0949 µM): 74.5%
- viability, T/C (second compound 0.0316 µM, first compound 0.3 µM): 61.7%
- viability, T/C (second compound 0.1 µM, first compound 0.000949 µM): 105%
- viability, T/C (second compound 0.1 µM, first compound 0.003 µM): 104%
- viability, T/C (second compound 0.1 µM, first compound 0.00949 µM): 104%
- viability, T/C (second compound 0.1 µM, first compound 0.03 µM): 87%
- viability, T/C (second compound 0.1 µM, first compound 0.0949 µM): 80.4%
- viability, T/C (second compound 0.1 µM, first compound 0.3 µM): 62.5%
- viability, T/C (second compound 0.316 µM, first compound 0.000949 µM): 107%
- viability, T/C (second compound 0.316 µM, first compound 0.003 µM): 111%
- viability, T/C (second compound 0.316 µM, first compound 0.00949 µM): 96.3%
- viability, T/C (second compound 0.316 µM, first compound 0.03 µM): 93.6%
- viability, T/C (second compound 0.316 µM, first compound 0.0949 µM): 77.1%
- viability, T/C (second compound 0.316 µM, first compound 0.3 µM): 62.4%
- viability, T/C (second compound 1 µM, first compound 0.000949 µM): 101%
- viability, T/C (second compound 1 µM, first compound 0.003 µM): 104%
- viability, T/C (second compound 1 µM, first compound 0.00949 µM): 77.3%
- viability, T/C (second compound 1 µM, first compound 0.03 µM): 83.7%
- viability, T/C (second compound 1 µM, first compound 0.0949 µM): 78.4%
- viability, T/C (second compound 1 µM, first compound 0.3 µM): 71%

Compound: C=CC(=O)N1CCN(c2nc(=O)n(-c3c(C)ccnc3C(C)C)c3nc(-c4c(O)cccc4F)c(F)cc23)C(C)C1 (stereo unspecified) + Cc1c(S(C)(=O)=O)c(-c2cc(F)cc(N3CCN(c4ccc(NS(=O)(=O)c5ccc(NC(CCN6CCC(C(=O)OCCCP(=O)(O)O)CC6)CSc6ccccc6)c(S(=O)(=O)C(F)(F)F)c5)cc4)CC3)c2)c(-c2ccc(Cl)cc2)n1C(C)C
- IC50 [1]: > 10000 nM
- IC50 [2]: > 10000 nM
- IC50 [3]: > 10000 nM
- IC50 [4]: > 10000 nM
- IC50 (curve of first compound, second compound 3.16 µM): 79.3 nM
- IC50 (curve of first compound, second compound 10 µM): < 31.6 nM
- viability, T/C (second compound 0.0316 µM, first compound 0.0316 µM): 82.1%
- viability, T/C (second compound 0.0316 µM, first compound 0.1 µM): 64.8%
- viability, T/C (second compound 0.0316 µM, first compound 0.316 µM): 65.9%
- viability, T/C (second compound 0.0316 µM, first compound 1 µM): 62.3%
- viability, T/C (second compound 0.0316 µM, first compound 3.16 µM): 63.7%
- viability, T/C (second compound 0.0316 µM, first compound 10 µM): 67%
- viability, T/C (second compound 0.1 µM, first compound 0.0316 µM): 74.3%
- viability, T/C (second compound 0.1 µM, first compound 0.1 µM): 64.4%
- viability, T/C (second compound 0.1 µM, first compound 0.316 µM): 68%
- viability, T/C (second compound 0.1 µM, first compound 1 µM): 64.2%
- viability, T/C (second compound 0.1 µM, first compound 3.16 µM): 66.7%
- viability, T/C (second compound 0.1 µM, first compound 10 µM): 56.8%
- viability, T/C (second compound 0.316 µM, first compound 0.0316 µM): 76.8%
- viability, T/C (second compound 0.316 µM, first compound 0.1 µM): 60.1%
- viability, T/C (second compound 0.316 µM, first compound 0.316 µM): 56.1%
- viability, T/C (second compound 0.316 µM, first compound 1 µM): 59%
- viability, T/C (second compound 0.316 µM, first compound 3.16 µM): 58.6%
- viability, T/C (second compound 0.316 µM, first compound 10 µM): 53.5%
- viability, T/C (second compound 1 µM, first compound 0.0316 µM): 65.3%
- viability, T/C (second compound 1 µM, first compound 0.1 µM): 59.5%
- viability, T/C (second compound 1 µM, first compound 0.316 µM): 57%
- viability, T/C (second compound 1 µM, first compound 1 µM): 54.5%
- viability, T/C (second compound 1 µM, first compound 3.16 µM): 61.4%
- viability, T/C (second compound 1 µM, first compound 10 µM): 46%
- viability, T/C (second compound 3.16 µM, first compound 0.0316 µM): 62.2%
- viability, T/C (second compound 3.16 µM, first compound 0.1 µM): 47.4%
- viability, T/C (second compound 3.16 µM, first compound 0.316 µM): 43.2%
- viability, T/C (second compound 3.16 µM, first compound 1 µM): 38.4%
- viability, T/C (second compound 3.16 µM, first compound 3.16 µM): 43.8%
- viability, T/C (second compound 3.16 µM, first compound 10 µM): 44%
- viability, T/C (second compound 10 µM, first compound 0.0316 µM): 48.2%
- viability, T/C (second compound 10 µM, first compound 0.1 µM): 40.9%
- viability, T/C (second compound 10 µM, first compound 0.316 µM): 39.7%
- viability, T/C (second compound 10 µM, first compound 1 µM): 40.5%
- viability, T/C (second compound 10 µM, first compound 3.16 µM): 44.9%
- viability, T/C (second compound 10 µM, first compound 10 µM): 39%

Compound: C#Cc1c(F)ccc2cc(O)cc(-c3ncc4c(N5CC6CCC(C5)N6)nc(OCC56CCCN5CC(F)C6)nc4c3F)c12 (stereo unspecified)
- viability, T/C (compound 0.0316 µM): 105% and 94.4% and 104%
- viability, T/C (compound 0.1 µM): 106% and 91.6% and 102%
- viability, T/C (compound 0.316 µM): 103% and 107% and 98.3%
- viability, T/C (compound 1 µM): 87.3% and 97.4% and 111%
- viability, T/C (compound 3.16 µM): 67.9% and 75.1% and 76.7%
- viability, T/C (compound 10 µM): 62.3% and 59.4% and 62.5%
- IC50 (curve of compound): > 10000 nM
